Measurements: US20230404953A1, “COMPOUND FOR THE REDUCTION OF WHITE ADIPOSE TISSUE AND THE TREATMENT OF OVERWEIGHT AND OBESITY” (UNIVERSIDAD DE GRANADA, priority 2020, published 2023)

Tests used:
[1] = tested on: wild-type mice with a HFHS diet; assay: Plasma levels of insulin and GIP in mice with a HFHS diet; assay type: in vivo; details: HFHS diet + β-RA, 16 weeks
Description: (§1) In this example intended for performing a short-term evaluation in an induced metabolic syndrome model, the animals were fed on a high fat high sucrose (HFHS) diet (32% carbohydrates, 14% proteins, and 54% fats as energy sources), where said mice experience a higher fat gain, imitating a state of obesity.
(§2) The experimental treatment was based on the administration of β-RA in the chow feed at a concentration of 0.33% (weight/weight), which represents a dose of 0.25-0.75 g/kg of body weight/day.
(§3) The mice were put under treatment at two months of life, with said treatment being maintained for 4 months. Analyses were performed at 6 months of life, after 4 months of treatment.
Plasma levels of insulin and gastric inhibitory peptide (GIP), also called glucose-dependent insulinotropic peptide, given that both of them tend to increase in cases of obesity with insulin resistance, were determined. […] The administration of β-RA to mice with a HFHS diet reduced the plasma levels of insulin (FIG. 14A) and GIP (FIG. 14B), normalizing said values.

[2] = tested on: wild-type mice with a standard diet; assay: Survival and phenotypic state of mice with a standard diet (overweight associated with age); assay type: in vivo
Description: (§4) For the studies, c57Bl6j strain control mice were used under the protocols approved by the Animal Experimentation Ethics Committee of the University of Granada and registered by the competent body, the General Directorate of Agricultural and Livestock Production of the Ministry of Agriculture, Livestock, Fisheries, and Sustainable Development of the Regional Government of Andalusia, under reference numbers 18/02/2019/016 and 16/09/2019/153.
(§5) In this example intended for long-term evaluation during the aging process, the animals were kept on a standard rodent diet consisting mainly of carbohydrates (66% carbohydrates, 21% proteins, and 13% fats as energy sources), where these mice accumulate fat as they age, imitating a situation of overweight associated with age.
as §2
(§6) The mice were put under treatment after weaning at 21 days of life, with said treatment being maintained for the entire life of the animals. Analyses were performed at 18 months of life, unless another age is indicated, after 17 months of treatment.
(§7) Survival and body weight were determined through continuous records throughout the life of the animals. Motor coordination and activity were evaluated through the rotarod test. The muscle strength of the hind limbs was evaluated through the grip strength test. The image and the weight of the tissues were taken immediately after sacrificing and dissecting the animals.

[3] = tested on: kidney mitochondria; assay: Kidney mitochondrial proteome in mice with a standard diet; assay type: in vivo
Description: To check if β-RA has effects on energy metabolism in mitochondria, a study was performed on the mitochondrial proteome of kidneys, because the highest β-RA levels are reached in this tissue (see Table 1).
Each kidney was dissected, and the mitochondrial fraction was then isolated by differential centrifugation. Each pellet was resuspended in […] of HEENK medium with a protease inhibitor. The samples were lysed, digested, and treated prior to injection in UHPLC. After quality control, the samples were injected into a UHPLC 1290 system (Agilent Technologies; Santa Clara, USA) coupled to a Q Exactive HF mass spectrometer (Thermo Scientific; Bremen, Germany) in the previously described conditions (Liu F, Lossl P, Rabbitts B M, Balaban R S, Heck A J R (2018) The interactome of intact mitochondria by cross-linking mass spectrometry provides evidence for coexisting respiratory supercomplexes. Mol Cell Proteomics 17: 216-232). The raw files generated were analyzed using MaxQuant v1.6.10 software (Cox J, Mann M (2008) MaxQuant enables high peptide identification rates, individualized p.p.b.-range mass accuracies and proteome-wide protein quantification. Nat Biotechnol 26: 1367-72). The files generated with MaxQuant were analyzed with Perseus: LFQ data was log 2-transformed, and identifications that were present in at least 3 of the 5 replicates were kept for subsequent analyses. For the volcano plot, a P-value threshold of 0.01 and 1 for the LFQ value log 2 difference has been established.

[4] = CAG-CreER^T2; Mclk1^Loxp/Loxp control mice; cited from earlier work
[5] = tested on: wild-type mice with a standard diet; assay: Liver morphology of mice with a standard diet (H&E and Oil Red O staining); assay type: in vivo; details: standard diet + 0.33% (w/w) β-RA; 18 months of age; male and female mice
Description: as §5, §2, §6
In this example, photographs have been taken of the animals and tissues after dissection. The tissues were fixed in formalin and embedded in paraffin. Several sections (4 μm thick) were deparaffinized with xylene and stained with hematoxylin and eosin staining (Luna-Sanchez M, Diaz-Casado E, Barca E, Tejada M A, Montilla-Garcia A, Cobos E J, Escames G, Acuna-Castroviejo D, Quinzii C M, Lopez L C (2015) The clinical heterogeneity of coenzyme Q10 deficiency results from genotypic differences in the Coq9 gene. EMBO Mol Med 7: 670-87). […]

[6] = tested on: C2C12 myoblasts; assay: MTT cell proliferation assay in myoblasts; assay type: cell-based; details: 1 mM β-RA for 5 days, proliferation conditions
Description: (§8) It is known that one of the WAT expansion mechanisms is hyperplasia, i.e., the capacity of WAT to recruit new adipocytes proliferated from precursor cells. To check whether the effect of β-RA on WAT may also constitute a direct action on WAT, the proliferative capacity of a preadipocyte cell line (3T3L1) subjected to treatment with β-RA was determined in in vitro assays, and the results were compared with those obtained in a myoblast cell line (C2C12). This could be used to determine whether the possible effects are specific of a given cell type, excluding those signals and consequences resulting from the physiological context of the in vivo studies. Preadipocyte cell line 3T3L1 and myoblast cell line C2C12 were provided by the Cell Culture Department of the Science Instrumentation Center of the University of Granada. The cells were cultured in glucose-rich DMEM-GlutaMAX supplemented with 10% BCS or FBS, 1% non-essential amino acids MEM, and 1% antibiotic/antimycotic. Treatment with β-RA was administered at a concentration of 1 mM for 5 days. A control group was also treated with vehicle (DMSO) at the same concentration (Luna-Sanchez et al., 2015). The proliferation assay was performed with Vybrant® MTT Cell Proliferation Assay Kit (ThermoFisher Scientific), following the indications of the manufacturing company.

[7] = tested on: white adipocytes; assay: Morphology of WAT in mice with a HFHS diet (hematoxylin and eosin staining); assay type: in vivo; details: HFHS diet + β-RA, 16 weeks
Description: as §1, §2, §3
(§9) At the level of WAT, CoQ metabolism was evaluated by determining the levels of the major form of CoQ in rodents, i.e., CoQ9, as well as the levels of two limiting enzymes in the CoQ biosynthesis pathway, i.e., the hydroxylase Coq7 and the methyltransferase Coq5. […] These molecular changes translate into morphological changes observed with hematoxylin and eosin staining. […] As a result, the area occupied by adipocytes after treatment with a HFHS diet is larger than after treatment with the standard diet, with the number of adipocytes being smaller. Treatment with β-RA normalizes both the area of the adipocytes (FIG. 16G) and the number thereof (FIG. 16H).

[8] = Quantification of β-RA levels in mouse tissues by HPLC-UV; assay type: in vivo; details: wild-type mice 3 months of age, β-RA in standard diet at 0.33% (w/w), oral, mean±SD
Description: The experimental treatment was based on the administration of β-RA in the chow feed at a concentration of 0.33% (weight/weight), which represents a dose of 0.25-0.75 g/kg of body weight/day. […] Therefore, β-RA has been chronically administered orally. The quantification of β-RA was carried out by means of HPLC-UV using an Ultra Aqueous C18 column and a mobile phase consisting of 20 mM potassium phosphate and 15% acetonitrile (pH 2.5). The standard curve consisted of β-RA at a concentration of 5, 25, and 100 μg/mL. In this example, β-RA levels were determined in order to know the bioavailability of the compound when it is administered orally. It has been observed that β-RA appears in the brain, kidneys, liver, and skeletal muscle, with the kidneys being the tissues having the highest level of the compound (Table 1).

[9] = tested on: wild-type mice with a HFHS diet; assay: Phenotypic state of mice with a high fat high sucrose (HFHS) diet (induced obesity); assay type: in vivo; details: HFHS diet + 0.33% (w/w) β-RA, 16 weeks
Description: as §4, §1, §2, §3, §7

[10] = tested on: white adipose tissue (WAT); assay: CoQ metabolism in white adipose tissue of mice with a HFHS diet; assay type: in vivo; details: HFHS diet + β-RA, 16 weeks
Description: as §1, §2, §3, §9

[11] = tested on: 3T3L1 preadipocytes; assay: MTT cell proliferation assay in preadipocytes; assay type: cell-based; details: 1 mM β-RA for 5 days, proliferation conditions
Description: as §8

[12] = standard diet + 0.33% (w/w) β-RA, 18 months of age

For O=C(O)c1ccc(O)cc1O [β-RA, 2,4-dihydroxybenzoic acid], the “Plasma levels of gastric inhibitory peptide (GIP)” value [1] was “reduced”, the “Plasma levels of insulin” value [1] was “reduced” and the Body weight ([2]; standard diet + 0.33% (w/w) β-RA from weaning, all stages of development, male and female) was “reduction of weight”. The Survival ([2]; standard diet + 0.33% (w/w) β-RA from weaning, old-age stage (18-24 months)) was “increase in survival”, the “Amount of abdominal and visceral fat” value [2, 12] was “reduction in the amount of abdominal and visceral fat” and the “Motor coordination (rotarod test)” value [2, 12] was “slight upward trend”. The “Muscle strength of the hind limbs (grip strength test)” value [2, 12] was “remained unchanged and even slightly increased in reference to the total weight of the animal”, the “Weight of the skeletal muscles” value ([2]; standard diet + 0.33% (w/w) β-RA, 18 months of age, hind limbs) was “maintained in the normal range” and the “Changes in the mitochondrial proteome: proteins of acetyl-CoA production from pyruvate and of the Krebs cycle” value ([3]; mice with standard diet + β-RA) was “an increase in proteins linked to the metabolic pathways for the production of acetyl-CoA from pyruvate and of the tricarboxylic acid cycle or Krebs cycle”. The “Expr Fold Change, ACO2” value ([3]; β-RA treated vs untreated mice, Aconitase 2 (Q99KI0)) was 1.383, the “Expr Fold Change, SUCLG1” value ([3]; β-RA treated vs untreated mice, Succinate CoA ligase subunit alpha (Q9WUM5)) was 1.301 and the “Expr Fold Change, SUCLG2” value ([3]; β-RA treated vs untreated mice, Succinate CoA ligase subunit beta (Q9Z2I8)) was 1.189. For the same compound, the “Expr Fold Change, CS” value ([3]; β-RA treated vs untreated mice, citrate synthase (Q9CZU6)) was 1.485, the “Expr Fold Change, DLAT” value ([3]; β-RA treated vs untreated mice, dihydrolipoamide S-acetyltransferase (Q8BMF4)) was 1.638 and the “Expr Fold Change, DLST” value ([3]; β-RA treated vs untreated mice, dihydrolipoamide S-succinyltransferase (Q9D2G2)) was 2.316. The “Expr Fold Change, DLD” value ([3]; β-RA treated vs untreated mice, dihydrolipoamide dehydrogenase (O08749)) was 1.831, the “Expr Fold Change, IDH3A” value ([3]; β-RA treated vs untreated mice, isocitrate dehydrogenase (NAD(+)) 3 catalytic subunit alpha (Q9D6R2)) was 1.72 and the “Expr Fold Change, IDH3B” value ([3]; β-RA treated vs untreated mice, isocitrate dehydrogenase (NAD(+)) 3 non-catalytic subunit beta (Q91VA7)) was 1.727. The “Expr Fold Change, IDH3G” value ([3]; β-RA treated vs untreated mice, isocitrate dehydrogenase (NAD(+)) 3 non-catalytic subunit gamma (P70404)) was 1.573, the “Expr Fold Change, MDH2” value ([3]; β-RA treated vs untreated mice, malate dehydrogenase 2 (P08249)) was 1.397 and the “Expr Fold Change, OGDH” value ([3]; β-RA treated vs untreated mice, oxoglutarate dehydrogenase (Q60597)) was 2.05. The “Expr Fold Change, PDHA1” value ([3]; β-RA treated vs untreated mice, pyruvate dehydrogenase E1 subunit alpha 1 (P35486)) was 1.61, the “Expr Fold Change, PDHB” value ([3]; β-RA treated vs untreated mice, pyruvate dehydrogenase E1 subunit beta (Q9D051)) was 1.711 and the Body weight [4] was “reduces the body weight”. The “Onset of hepatic steatosis (lipid droplets in liver)” value [5] was “prevented”, the “Proliferative capacity of C2C12 myoblasts” value [6] was “did not have a significant effect” and the “Area of the adipocytes” value [7] was “normalizes”. The “Number of adipocytes per area” value [7] was “normalizes”, the “Hypertrophy of WAT (white adipocytes)” value ([7]; H&E staining) was “prevents hypertrophy of WAT” and the “β-RA levels, Brain” value ([8]; brain) was 1.26 ± 0.58 ng of β-RA/mg of protein. The “β-RA levels, Kidney” value ([8]; kidney) was 43.02 ± 16.51 ng of β-RA/mg of protein, the “β-RA levels, Liver” value ([8]; liver) was 7.04 ± 2.96 ng of β-RA/mg of protein and the “β-RA levels, Muscle” value ([8]; skeletal muscle) was 20.28 ± 9.39 ng of β-RA/mg of protein. The “Abdominal and visceral fat” value [9] was “reduction of abdominal and visceral fat”, the Skeletal muscle mass [9] was “do not cause any changes” and the “Body weight (increase induced by HFHS diet)” value ([9]; male and female) was “counteracted said increase in weight”. For the same compound, the “Levels of CoQ9 in WAT” value [10] was “increased said levels, achieving the normalization thereof”, the “Levels of biosynthetic protein Coq5 in WAT” value [10] was “increase” and the “Levels of biosynthetic protein Coq7 in WAT” value [10] was “increase in the levels of Coq7”. The 3T3L1 preadipocyte proliferation [11] was “induces an inhibition”.
